Assay results from US20070219159A1, “CYCLODEXTRIN COMPOSITIONS AND METHODS OF TREATING VIRAL INFECTIONS” (priority 2002, published 2007).
Converted amounts (≈) assume the structure as drawn. Read-outs that look alike come from different tables or passages of the source.

What was measured:
[1] = system: HCV; assay: In vitro anti-HCV assay in HCV RNA-replicating cell line AVA5; format: cell-based; conditions: HCV
Procedure: The antiviral activity of test compounds were assayed in the stably HCV RNA-replicating cell line. AVA5, derived by transfection of the human hepatoblastoma cell line, Huh^7 (Blight et al., 2000). Experimental drugs were added to dividing cultures once daily for three days. Media was changed with each addition of compound. Cultures generally started the assays at 50% confluence and reached confluence during the last day of treatment. HCV RNA and cellular β-actin RNA levels were assessed 24 hours after the last dose of compound using dot blot hybridization. Assays were conducted using a single dose of test compound (in triplicate cultures).
Both HCV and β-actin RNA levels in the treated cultures were expressed as a percentage of the mean levels of RNA detected in untreated cultures. β-actin RNA levels were used both as a measure of toxicity, and to normalize the amount of cellular RNA in each sample. A level of 30% or less HCV RNA (relative to control cultures) was considered to be a positive antiviral effect, and a level of 50% or less β-actin RNA (relative to control cultures) is considered to be a cytotoxic effect.
Dividing cultures of AVAB cells were treated once daily for three days (media was changed with each addition of compound) with 4 concentrations of test compounds (3 cultures per concentration). A total of 6 untreated control cultures, and triplicate cultures treated with 10, 3, and 1 IU/ml α-interferon (active antiviral with no cytotoxicity), and 100, 10, and 1 μM ribavir ([…]) served as controls. HCV RNA and cellular β-actin FNA levels were assessed 24 hours after the last dose of compound using dot blot hybridization. β-actin RNA levels were used to normalize the amount of cellular RNA in each sample.
Toxicity analyses were performed on separate plates from those used for the antiviral assays. Cells for the toxicity analyses were cultured and treated with test compounds with the same schedule and under identical culture conditions used for the antiviral evaluations. Each compound was tested at 4 concentrations, each in triplicate cultures. Uptake of neutral red dye was used to determine the relative level of toxicity 24 hours following the last treatment. The absorbance of internalized dye at […] (A510) was used for the quantitative analysis. Values in test cultures were compared to 9 cultures of untreated cells maintained on the same plate as the test cultures.
Assays similar to those described above were conducted.

[2] = Aqueous solubility; format: physicochemical
[3] = system: HSV-2 strain MS; assay: CPE reduction assay in Vero cells, HSV-2; format: cell-based
[4] = system: HSV-1 strain KOS1.1; assay: CPE reduction assay in Vero cells, HSV-1; format: cell-based
[5] = system: Vero cells; conditions: 48 hours
[6] = system: HSV-1; assay: HSV-1 plaque formation / IC50 study in Vero cells; format: cell-based; conditions: for Plaques ± Std. Dev.: HSV-1 plaques per well, 48 hours
[7] = system: Vero cells; assay: Cell viability by LDH release assay; format: cell-based; conditions: 48 hours
Procedure: FIG. 3 depicts the effects of ACV alone (400 μg/ml) and β-CD alone (8 mg/ml) on the viability of Vero cells as monitored by the LDH release assay after 24 hours of treatments (A); and after 48 hours of treatments (B). All data represents means+SD of two separate experiments.
Cell viability assay. Cell viability was determined fluorometrically by estimating the release of LDH into the media (Moran and Schnellman, 1996). LDH activity was based on the reduction of pyruvate to lactate. The concomitant oxidation of NADH results in a decrease in the fluorescence emission at 450 nm with excitation wavelength 355 nm, and the rate of disappearance of NADH is indicative of LDH activity.
To study the effects of formulations on viability of preformed monolayers, 3 to 4×10^6 Vero cells were added to 1× MEM-5% FBS in T75 flasks. […] Used media were replaced with 15 ml of treatment media, containing 5× MEM-FBS diluted to 1× with water (control), acyclovir stock (400 μg/ml), or β-CD stock (8 mg/ml in water). […]
Reaction solution was made fresh for each experiment by mixing 0.4 ml of 16.2 mM pyruvate with 10 ml of 0.2 mM NADH in phosphate buffer (pH 7.5). […] The amount of LDH calculated for either condition was then compared with and expressed as a percentage of the total LDH present.
Used media were replaced with 15 ml/flask or 2.5 ml/well of treatment media, containing 5× MEM-FBS diluted to 1× with water (control), and […]CD stock. […] Live cells are distinguished by the presence of intracellular esterase activity, as determined by the enzymatic conversion of calcein-AM (nonfluorescent) to calcein (green fluorescence). EthD-1 enters cells with damaged cell membranes and binds to nucleic acids producing red fluorescence to identify dead cells. […] For LDH assays, cells were trypsinized, resuspended in fresh 1× medium, kept at 37° C.-5% CO2 atmosphere, and total LDH present in cells and medium was determined after lysing the cells with 350 μM digitonin. The amount of LDH calculated for either condition was then compared with and expressed as a percentage of the total LDH present. […]

[8] = Human alphaherpesvirus 1, Vero, read-out: % of control ± SEM

OC[C@H]1O[C@@H]2O[C@H]3[C@H](O)[C@@H](O)[C@@H](O[C@H]4[C@H](O)[C@@H](O)[C@@H](O[C@H]5[C@H](O)[C@@H](O)[C@@H](O[C@H]6[C@H](O)[C@@H](O)[C@@H](O[C@H]7[C@H](O)[C@@H](O)[C@@H](O[C@H]8[C@H](O)[C@@H](O)[C@@H](O[C@H]1[C@H](O)[C@H]2O)O[C@@H]8CO)O[C@@H]7CO)O[C@@H]6CO)O[C@@H]5CO)O[C@@H]4CO)O[C@@H]3CO [BCD, β-cyclodextrin]
S.I. for HCV [1]: 1.13
solubility ([2]; read-out: concentration at which solubility becomes a limiting issue): > 8000 µg/mL
solubility ([2]; water, read-out: concentrations at which insoluble in water): > 10000 µg/mL
protection of Vero cells by inhibition of viral CPE ([3]; HSV-2, MOI 0.001 and 0.1, BCD 7-8 mg/ml): almost complete protection
inhibition of infection, direct microscopy and crystal violet staining ([3]; HSV-2, MOI 2.0): inhibited infection
anti-herpes effects at high multiplicity of infection ([3]; HSV-2, MOI >50, BCD 7-8 mg/ml): exhibited anti-herpes effects
protection of Vero cells by inhibition of viral CPE ([4]; HSV-1, MOI 0.001 and 0.1, BCD 7-8 mg/ml): almost complete protection
inhibition of infection, direct microscopy and crystal violet staining ([4]; HSV-1, MOI 2.0 (data not shown)): inhibited infection
anti-herpes effects at high multiplicity of infection ([4]; HSV-1, MOI >50, BCD 7-8 mg/ml): exhibited anti-herpes effects
anti-HSV activity compared with acyclovir ([4]; β-CD 7.2 mg/ml): comparable to acyclovir in the range of 200 to 400 μg/ml
cell viability (normalized to control cells) ([5]; 5.5 mg/ml BCD): 91.23%
cell viability (normalized to control cells) ([5]; 7.2 mg/ml BCD): 84.89%
cytotoxicity ([5]; maximum concentration of BCD): < 15%
Plaques ± Std. Dev. ([6]; BCD 3.5 mg/ml): 119.0 ± 1.0
Plaques ± Std. Dev. ([6]; BCD 4.0 mg/ml): 111.0 ± 6.6
Plaques ± Std. Dev. ([6]; BCD 4.5 mg/ml): 84.0 ± 10.53
Plaques ± Std. Dev. ([6]; BCD 5.0 mg/ml): 74.67 ± 4.51
Plaques ± Std. Dev. ([6]; BCD 5.5 mg/ml): 54.67 ± 5.68
Plaques ± Std. Dev. ([6]; BCD 6.0 mg/ml): <10
IC50 ([6]; Human alphaherpesvirus 1, Vero, 48 h): 5100 µg/mL (≈ 4.49 mM)
activity at 3500 µg/mL [6, 8]: 85.2 ± 0.58%
activity at 4000 µg/mL [6, 8]: 79.5 ± 3.8%
activity at 4500 µg/mL [6, 8]: 60.1 ± 6.08%
activity at 5000 µg/mL [6, 8]: 53.5 ± 2.6%
activity at 5500 µg/mL [6, 8]: 39.1 ± 3.28%
cell viability (LDH assay) ([7]; 8.0 mg/ml BCD): 68.57%
decrease in cell viability ([7]; β-CD 8 mg/ml, Vero cells): 30-40%
